# Laboratory results taken from patent US8557848B2, “4,5-ring annulated indole derivatives for treating or preventing of HCV and related viral infections” (Merck Sharp & Dohme Corp., priority 2006, dated 2013).
# Like-named read-outs stand apart in the source and are kept apart here.
# Columns and labels:
# [1] = molecular target: T1, HCV NS5B polymerase (NS5BΔCT21, from HCV-Con 1 isolate, genotype 1b) (Hepatitis C virus genotype 1b, UniProt Q9WMX2); test: HCV NS5B Polymerase Inhibition Assay; assay type: biochemical
# T1 construct: A soluble C-terminal 21-amino acid truncated NS5B enzyme form; polyhistidine (C); made in house; host or cells: Escherichia coli
# Source text: A chemically synthesized 75-mer version, designated DCoH75, whose sequence matches the 3′-end of D-RNA, and DCoH75ddC, where the 3′-terminal cytidine of DCoH75 is replaced by dideoxycytidine, were used for assaying the NS5B enzyme activity as described in Ferrari et al., 12th International Symposium on HCV and Related Viruses, P-306 (2005). The sequence of the template RNA was: 5′-UGUGCCGGUCUUUCUGAACGGGAUAUAAACCUGGCCAGCUUCAUCGAACAAGUUGCCGUGUCUAUGACAUAGAUC-3′. A soluble C-terminal 21-amino acid truncated NS5B enzyme form (NS5BΔCT21, from HCV-Con 1 isolate, genotype 1b, Genbank accession number AJ238799) was produced and purified from Escherichia coli as C-terminal polyhistidine-tagged fusion protein as described in Ferrari et al., J. Virol. 73:1649-1654 (1999). A typical assay contained 20 mM Hepes pH 7.3, 10 mM MgCl2, 60 mM NaCl, 100 μg/ml BSA, 20 units/ml RNasin, 7.5 mM DTT, 0.1 μM ATP/GTP/UTP, 0.026 μM CTP, 0.25 mM GAU, 0.03 μM RNA template, 20 μCi/ml [^33P]-CTP, 2% DMSO, and 30 or 150 nM NS5B enzyme. Reactions were incubated at 22° C. for 2 hours, then stopped by adding 150 mM EDTA, washed in DE81 filter plate in 0.5M di-basic sodium phosphate buffer, pH 7.0, and counted using Packard TopCount after the addition of scintillation cocktail. Polynucleotide synthesis was monitored by the incorporation of radiolabeled CTP. The effect of the Compounds of Formula (I) on the polymerase activity was evaluated by adding various concentrations of a Compound of Formula (I), typically in 10 serial 2-fold dilutions, to the assay mixture. The starting concentrations ranged from 200 μM to 1 μM. An IC50 value for the inhibitor, defined as the compound concentration that provides 50% inhibition of polymerase activity, was determined by fitting the cpm data to the Hill equation Y=100/(1+10^((LogIC50-X)*HillSlope)), where X is the logarithm of compound concentration, and Y is the % inhibition. Ferrari et al., 12th International Symposium on HCV and Related Viruses, P-306 (2005) described in detail this assay procedure. It should be noted that such an assay as described is exemplary and not intended to limit the scope of the invention. The skilled practitioner can appreciate that modifications including but not limited to RNA template, primer, nucleotides, NS5B polymerase form, buffer composition, can be made to develop similar assays that yield the same result for the efficacy of the compounds and compositions described in the invention.
# NS5B polymerase inhibition data for selected Compounds of Formula (I) is provided below in Table 2, wherein the compound numbers correspond to the compound numbering set forth in the above specification.
# [2] = tested on: HCV replicon cells (replicon RNA level); test: Cell-Based HCV Replicon Assay; conditions: Hepatitis C virus, 72 h; replicon RNA level by real time PCR (Taqman), cells harvested on day 3; read-out: EC50
# Method: To measure cell-based anti-HCV activity of the a Compound of Formula (I), replicon cells were seeded at 5000 cells/well in 96-well collagen I-coated Nunc plates in the presence of the Compound of Formula (I). Various concentrations of a Compound of Formula (I), typically in 10 serial 2-fold dilutions, were added to the assay mixture, with the starting concentration ranging from 250 μM to 1 μM. The final concentration of DMSO was 0.5%, fetal bovine serum was 5%, in the assay media. Cells were harvested on day 3 by the addition of 1× cell lysis buffer (Ambion cat #8721). The replicon RNA level was measured using real time PCR (Taqman assay). The amplicon was located in 5B. The PCR primers were: 5B.2F, ATGGACAGGCGCCCTGA; 5B.2R, […]; the probe sequence was FAM-labeled CACGCCATGCGCTGCGG. GAPDH RNA was used as endogenous control and was amplified in the same reaction as NS5B (multiplex PCR) using primers and VIC-labeled probe recommended by the manufacturer (PE Applied Biosystem). The real-time RT-PCR reactions were run on ABI PRISM 7900HT Sequence Detection System using the following program: 48° C. for 30 min, 95° C. for 10 min, 40 cycles of 95° C. for 15 sec, 60° C. for 1 min. The ΔCT values (CT5B-CTGAPDH) were plotted against the concentration of test compound and fitted to the sigmoid dose-response model using XLfit4 (MDL). EC50 was defined as the concentration of inhibitor necessary to achieve ΔCT=1 over the projected baseline; EC90 the concentration necessary to achieve ΔCT=3.2 over the baseline. Alternatively, to quantitate the absolute amount of replicon RNA, a standard curve was established by including serially diluted T7 transcripts of replicon RNA in the Taqman assay. All Taqman reagents were from PE Applied Biosystems. Such an assay procedure was described in detail in e.g. Malcolm et al., Antimicrobial Agents and Chemotherapy 50: 1013-1020 (2006).
# HCV Replicon assay data for selected Compounds of Formula (I) is provided below in Table 1, wherein the compound numbers correspond to the compound numbering set forth in the above specification.
# [3] = NS5B polymerase inhibition, [33P]-CTP incorporation, 22° C. for 2 hours, read-out: IC50
Compound,"IC50 [1, 3]",EC50 [2],IC50 [1]
O=C(O)c1c(-c2ccc[nH]c2=O)c2c3occc3ccc2n1Cc1ccccc1F [Compound 1],< 25 nM,< 500 nM,
CS(=O)(=O)NC(=O)c1c(-c2ccc[nH]c2=O)c2c3occc3ccc2n1Cc1ccc(F)cc1F [Compound 4],25 to 100 nM,< 500 nM,
CS(=O)(=O)NC(=O)c1c(-c2ccc[nH]c2=O)c2c3occc3ccc2n1Cc1ccccc1F [Compound 4],< 25 nM,< 500 nM,
CS(=O)(=O)NC(=O)c1c(-c2ccc[nH]c2=O)c2c3ccoc3ccc2n1Cc1ccc(F)cc1F [Compound 9],< 25 nM,> 1500 nM,
COc1ccc(S(=O)(=O)NC(=O)c2c(-c3ccc[nH]c3=O)c3c4ccoc4ccc3n2Cc2ccc(F)cc2F)cc1 [Compound 10],25 to 100 nM,> 1500 nM,
CS(=O)(=O)Nc1cccc(S(=O)(=O)NC(=O)c2c(-c3ccc[nH]c3=O)c3c4ccoc4ccc3n2Cc2ccc(F)cc2F)c1 [Compound 11],25 to 100 nM,> 1500 nM,
CS(=O)(=O)NC(=O)c1c(-c2ccc[nH]c2=O)c2c3c(ccc2n1Cc1cc(F)ccc1F)CCC3 [Compound 12],< 25 nM,500 to 1500 nM,
Nc1cc(Cn2c(C(=O)O)c(-c3ccc[nH]c3=O)c3c4scnc4ccc32)ccn1 [Compound 13],> 100 nM,> 1500 nM,
Nc1cc(Cn2c(C(=O)O)c(-c3ccc[nH]c3=O)c3c4ncsc4ccc32)ccn1 [Compound 14],< 25 nM,500 to 1500 nM,
O=C(O)c1c(-c2ccc[nH]c2=O)c2c3occc3ccc2n1Cc1ccc(F)cc1F [Compound 16],< 25 nM,500 to 1500 nM,
O=C(O)c1c(-c2ccc[nH]c2=O)c2c3scnc3ccc2n1Cc1ccc(F)cc1F [Compound 16],> 100 nM,> 1500 nM,
O=C(O)c1c(-c2ccc[nH]c2=O)c2c3ncsc3ccc2n1Cc1ccc(F)cc1F [Compound 17],< 25 nM,> 1500 nM,
CCc1coc2c1ccc1c2c(-c2ccc[nH]c2=O)c(C(=O)O)n1Cc1cc(F)ccc1F [Compound 24],> 100 nM,> 1500 nM,
O=C(O)c1c(-c2ccc[nH]c2=O)c2c3sccc3ccc2n1Cc1cc(F)ccc1F [Compound 33],25 to 100 nM,> 1500 nM,
O=C(O)c1c(-c2ccc[nH]c2=O)c2c3sccc3ccc2n1Cc1ccccc1F [Compound 34],25 to 100 nM,500 to 1500 nM,
O=C(O)c1c(-c2ccc[nH]c2=O)c2c3c(ccc2n1Cc1cc(F)ccc1F)OC(F)(F)O3 [Compound 37],< 25 nM,> 1500 nM,
O=C(O)c1c(-c2ccc[nH]c2=O)c2c3ccoc3ccc2n1Cc1ccccc1F [Compound 39],25 to 100 nM,> 1500 nM,
O=C(O)c1c(-c2ccc[nH]c2=O)c2c3ccoc3ccc2n1Cc1cc(F)ccc1F [Compound 40],25 to 100 nM,> 1500 nM,
Cc1ccccc1Cn1c(C(=O)O)c(-c2ccc[nH]c2=O)c2c3occc3ccc21 [Compound 41],< 25 nM,< 500 nM,
CCc1coc2c1ccc1c2c(-c2ccc[nH]c2=O)c(C(=O)O)n1Cc1ccccc1F [Compound 43],> 100 nM,> 1500 nM,

Compound,"IC50 [1, 3]",EC50 [2],IC50 [1]
O=C(O)c1c(-c2ccc[nH]c2=O)c2c3occ(Cl)c3ccc2n1Cc1ccccc1F [Compound 45],< 25 nM,< 500 nM,
O=C(O)c1c(-c2ccc[nH]c2=O)c2c3occ(Cl)c3ccc2n1Cc1cc(F)ccc1F [Compound 46],< 25 nM,< 500 nM,
Cc1coc2c1ccc1c2c(-c2ccc[nH]c2=O)c(C(=O)O)n1Cc1cc(F)ccc1F [Compound 47],> 100 nM,> 1500 nM,
Cc1cccc(Cn2c(C(=O)O)c(-c3ccc[nH]c3=O)c3c4occ(C)c4ccc32)c1F [Compound 48],> 100 nM,> 1500 nM,
CS(=O)(=O)NC(=O)c1c(-c2ccc[nH]c2=O)c2c3ncsc3ccc2n1Cc1ccccc1F [Compound 50],< 25 nM,< 500 nM,
CCOC(=O)c1c(-c2ccccc2F)c2c3c(C)c(C)[nH]c3ccc2n1Cc1ccccc1 [Compound 51],,> 1500 nM,> 100 nM
Cc1ccccc1Cn1c(C(=O)NS(C)(=O)=O)c(-c2ccc[nH]c2=O)c2c3ncsc3ccc21 [Compound 51],,< 500 nM,< 25 nM
CS(=O)(=O)NC(=O)c1c(-c2ccc[nH]c2=O)c2c3sccc3ccc2n1Cc1cc(F)ccc1F [Compound 52],< 25 nM,> 1500 nM,
CS(=O)(=O)NC(=O)c1c(-c2ccc[nH]c2=O)c2c3c(ccc2n1Cc1ccccc1F)OC(F)(F)O3 [Compound 56],,> 1500 nM,< 25 nM
CCS(=O)(=O)NC(=O)c1c(-c2ccc[nH]c2=O)c2c3occc3ccc2n1Cc1cc(F)ccc1F [Compound 57],< 25 nM,< 500 nM,
CS(=O)(=O)NC(=O)c1c(-c2ccc[nH]c2=O)c2c3c(ccc2n1Cc1cc(F)ccc1F)CCO3 [Compound 59],,< 500 nM,< 25 nM
Cc1ccc(Cn2c(C(=O)NS(C)(=O)=O)c(-c3ccc[nH]c3=O)c3c4occc4ccc32)c(C)c1 [Compound 60],< 25 nM,< 500 nM,
Cc1ccccc1Cn1c(C(=O)NS(C)(=O)=O)c(-c2ccc[nH]c2=O)c2c3occc3ccc21 [Compound 61],< 25 nM,< 500 nM,
O=C(NS(=O)(=O)C1CC1)c1c(-c2ccc[nH]c2=O)c2c3occc3ccc2n1Cc1cc(F)ccc1F [Compound 62],< 25 nM,< 500 nM,
CC(C)S(=O)(=O)NC(=O)c1c(-c2ccc[nH]c2=O)c2c3occc3ccc2n1Cc1cc(F)ccc1F [Compound 63],< 25 nM,< 500 nM,
CC(C)S(=O)(=O)NC(=O)c1c(-c2ccc[nH]c2=O)c2c3occc3ccc2n1Cc1ccccc1F [Compound 64],< 25 nM,< 500 nM,
O=C(NS(=O)(=O)C1CC1)c1c(-c2ccc[nH]c2=O)c2c3occc3ccc2n1Cc1ccccc1F [Compound 65],< 25 nM,< 500 nM,
Cc1cccc(Cn2c(C(=O)NS(C)(=O)=O)c(-c3ccc[nH]c3=O)c3c4occc4ccc32)c1F [Compound 66],< 25 nM,< 500 nM,
CS(=O)(=O)NC(=O)c1c(-c2ccc[nH]c2=O)c2c3occc3ccc2n1Cc1ccccc1Cl [Compound 67],< 25 nM,< 500 nM,
CCS(=O)(=O)NC(=O)c1c(-c2ccc[nH]c2=O)c2c3occc3ccc2n1Cc1ccccc1F [Compound 68],< 25 nM,< 500 nM,
